For 18 compounds, pest or weed control results are on record in patent US9265253B2, “Use of macrocyclic picolinamides as fungicides” (DOW AGROSCIENCES LLC, priority 2013, dated 2016).

Experiment [1] concerns Puccinia triticina; Synonym: Puccinia recondite f. Sp. Tritici. Kind of experiment: Wheat Brown Rust (PUCCRT) disease control. The class given is in vivo. To be noted: Puccinia triticina, topical; for pest or weed control at 100 ppm: rate 100 ppm. A digest of the protocol:
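Brown rust on first-leaf Yuma wheat: spore inoculation before or after spray application (acetone/Triton X-100 solution, or EC with Trycol in track spray), overnight 100% RH at 22 °C, disease developed at 24 °C. Severity scored 0–100% and converted to percent control against untreated.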

Experiment [2] concerns Mycosphaerella graminicola; Anamorph: Septoria tritici. As to the kind of experiment: Leaf Blotch of Wheat (SEPTTR) disease control. To be noted: Zymoseptoria tritici; for pest or weed control at 100 ppm: rate 100 ppm. The class given is in vivo. A digest of the protocol:
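Protective or curative format: Septoria tritici inoculation either preceded or followed fungicide application to first-leaf Yuma wheat. Severity scored 0–100%; control expressed versus untreated.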

Where [3] appears, read: 24 h, 1 Day Protectant, read-out: PUCCRT 1 DP disease control.
The mark [4] stands for this setting: 24 h, 1 Day Protectant, rate 121.5 g/H, read-out: PUCCRT 1 DP disease control.
Setting [5] is: 72 h, 3 Day Curative, read-out: PUCCRT 3 DC disease control.
Where [6] appears, read: 72 h, 3 Day Curative, rate 121.5 g/H, read-out: PUCCRT 3 DC disease control.
The mark [7] stands for this setting: 24 h, 1 Day Protectant, read-out: SEPTTR 1 DP disease control.
Setting [8] is: 24 h, 1 Day Protectant, rate 121.5 g/H, read-out: SEPTTR 1 DP disease control.
[9] abbreviates: 72 h, 3 Day Curative, read-out: SEPTTR 3 DC disease control.
[10] abbreviates: 72 h, 3 Day Curative, rate 121.5 g/H, read-out: SEPTTR 3 DC disease control.

The structures appear in SMILES notation. Where two headings read alike, the source gives them in different places.

In the case of `COc1ccnc(C(=O)N[C@H]2CCC[C@H](CC3CCCC3)[C@@H](OCC3CC3)[C@H](C)OC2=O)c1OCOC(=O)C(C)C` [Compound F154, ((2-(((3S,7R,8R,9S)-7-(cyclopentylmethyl)-8-(cyclopropylmethoxy)-9-methyl-2-oxooxonan-3-yl)carbamoyl)-4-methoxypyridin-3-yl)oxy)methyl isobutyrate], the pest or weed control at 100 ppm in experiment [1] (setting [3]), in experiment [1] (setting [5]), in experiment [2] (setting [7]) and in experiment [2] (setting [9]) was 80 to 100% in each case. In addition, the pest or weed control at 121.5 g/ha in experiment [1] (setting [4]), in experiment [1] (setting [6]), in experiment [2] (setting [8]) and in experiment [2] (setting [10]) was 80 to 100% each time.

For the compound `COc1ccnc(C(=O)N[C@H]2CCC[C@H](CCOc3ccccc3)[C@@H](Oc3ccccc3)[C@H](C)OC2=O)c1OCOC(C)=O` [Compound F129], the pest or weed control at 100 ppm in experiment [1] (setting [3]), in experiment [1] (setting [5]), in experiment [2] (setting [7]) and in experiment [2] (setting [9]) was 80 to 100% in each case. Besides, the pest or weed control at 121.5 g/ha was 80 to 100% in experiment [1] (setting [4]), 0 to 80% in experiment [1] (setting [6]), 80 to 100% in experiment [2] (setting [8]) and 80 to 100% in experiment [2] (setting [10]).

Take `COc1ccnc(C(=O)N[C@H]2CCC[C@H](CCC(C)C)[C@@H](OCCCC(F)(F)F)[C@H](C)OC2=O)c1O` [Compound F5]: the pest or weed control at 100 ppm in experiment [1] (setting [3]) lay in the range of 80 to 100%; in experiment [1] (setting [5]), 0 to 80%; in experiment [2] (setting [7]), 80 to 100%; in experiment [2] (setting [9]), 80 to 100%.

On to `COc1ccnc(C(=O)N[C@H]2CCC[C@H](Cc3ccco3)[C@@H](OCC(C)C)[C@H](C)OC2=O)c1OCOC(C)=O` [Compound F120], for which the results for the pest or weed control at 121.5 g/ha in experiment [1] (setting [4]), in experiment [2] (setting [8]) and in experiment [2] (setting [10]) were 80 to 100%, 80 to 100% and 0 to 80%, respectively.

`COc1ccnc(C(=O)N[C@H]2CCC[C@H](CC3CCCC3)[C@@H](OCC3CC3)[C@H](C)OC2=O)c1O` [Compound F31]: the pest or weed control at 100 ppm in experiment [1] (setting [3]), in experiment [1] (setting [5]), in experiment [2] (setting [7]) and in experiment [2] (setting [9]) was 80 to 100% each time.

As for `COc1ccnc(C(=O)N[C@H]2CCC[C@H](CCC(C)C)[C@@H](OCCCC(F)(F)F)[C@H](C)OC2=O)c1OC(C)=O` [Compound F65], the pest or weed control at 100 ppm in experiment [1] (setting [3]), in experiment [1] (setting [5]), in experiment [2] (setting [7]) and in experiment [2] (setting [9]) was 80 to 100% in each case. Further, the pest or weed control at 121.5 g/ha in experiment [1] (setting [4]) lay within 80 to 100%; in experiment [1] (setting [6]), 0 to 80%; in experiment [2] (setting [8]) it was 80 to 100%; in experiment [2] (setting [10]) it was 80 to 100%.

For `COc1ccnc(C(=O)N[C@H]2CCC[C@H](Cc3ccc(F)cc3)[C@@H](OCC(F)F)[C@H](C)OC2=O)c1OC(C)=O` [Compound F69], the pest or weed control at 100 ppm in experiment [1] (setting [3]), in experiment [1] (setting [5]), in experiment [2] (setting [7]) and in experiment [2] (setting [9]) was 80 to 100% in each case. For the same compound, the pest or weed control at 121.5 g/ha in experiment [1] (setting [4]), in experiment [1] (setting [6]), in experiment [2] (setting [8]) and in experiment [2] (setting [10]) was 80 to 100% throughout.

As to `C=CCO[C@@H]1[C@@H](Cc2ccc(F)cc2)CCC[C@H](NC(=O)c2nccc(OC)c2OCOC(C)=O)C(=O)O[C@H]1C` [Compound F100], the pest or weed control at 100 ppm in experiment [1] (setting [3]), in experiment [1] (setting [5]), in experiment [2] (setting [7]) and in experiment [2] (setting [9]) was 80 to 100% each time. Besides, the pest or weed control at 121.5 g/ha in experiment [1] (setting [4]) is 80 to 100%; in experiment [1] (setting [6]), 0 to 80%; in experiment [2] (setting [8]), 80 to 100%; in experiment [2] (setting [10]), 80 to 100%.

On to `COc1ccnc(C(=O)N[C@H]2CCC[C@H](Cc3ccco3)[C@@H](OCC(C)C)[C@H](C)OC2=O)c1O` [Compound F34], for which the pest or weed control at 100 ppm in experiment [1] (setting [3]), in experiment [1] (setting [5]), in experiment [2] (setting [7]) and in experiment [2] (setting [9]) was 80 to 100% each time.

`COc1ccnc(C(=O)N[C@H]2CCC[C@H](CC3CCCC3)[C@@H](Oc3ccccc3)[C@H](C)OC2=O)c1OC(C)=O` [Compound F71]: the pest or weed control at 100 ppm in experiment [1] (setting [3]), in experiment [1] (setting [5]), in experiment [2] (setting [7]) and in experiment [2] (setting [9]) was 80 to 100% in each case. For the same compound, the pest or weed control at 121.5 g/ha in experiment [1] (setting [4]) fell in the range of 80 to 100%; in experiment [1] (setting [6]), 0 to 80%; in experiment [2] (setting [8]), 80 to 100%; in experiment [2] (setting [10]) it was 80 to 100%.

As for `C=C[C@H]1CCC[C@H](NC(=O)c2nccc(OC)c2O)C(=O)O[C@@H](C)[C@@H]1Oc1ccccc1` [Compound F61], the pest or weed control at 100 ppm in experiment [1] (setting [3]) lay in the range of 80 to 100%; in experiment [1] (setting [5]) it was 0 to 80%; in experiment [2] (setting [7]) it was 80 to 100%.

Regarding `COc1ccnc(C(=O)N[C@H]2CCC[C@H](Cc3ccccc3)[C@@H](O)[C@H](C)OC2=O)c1O` [Compound F40], the pest or weed control at 100 ppm in experiment [1] (setting [3]) lay within 80 to 100%; in experiment [1] (setting [5]), 0 to 80%; in experiment [2] (setting [7]), 0 to 80%; in experiment [2] (setting [9]), 0 to 80%.

On to `COc1ccnc(C(=O)N[C@H]2CCC[C@H](Cc3ccccc3)[C@@H](Oc3ccccc3)[C@H](C)OC2=O)c1O` [Compound F20], for which the pest or weed control at 100 ppm in experiment [1] (setting [3]) was in the range of 80 to 100%; in experiment [1] (setting [5]), 0 to 80%; in experiment [2] (setting [7]), 80 to 100%; in experiment [2] (setting [9]) it was 80 to 100%.

In the case of `COc1ccnc(C(=O)N[C@H]2CCC[C@H](Cc3ccc(F)cc3F)[C@@H](OCCCc3ccccc3)[C@H](C)OC2=O)c1O` [Compound F56], the pest or weed control at 100 ppm in experiment [1] (setting [3]) lay in the range of 80 to 100%; in experiment [1] (setting [5]), 0 to 80%; in experiment [2] (setting [7]) it was 80 to 100%; in experiment [2] (setting [9]), 0 to 80%.

On to `COc1ccnc(C(=O)N[C@H]2CCC[C@H](CCC(C)C)[C@@H](OCCCC(F)(F)F)[C@H](C)OC2=O)c1OCOC(=O)C(C)C` [Compound F150], for which the pest or weed control at 100 ppm in experiment [1] (setting [3]), in experiment [1] (setting [5]), in experiment [2] (setting [7]) and in experiment [2] (setting [9]) was 80 to 100% each time. Besides, the pest or weed control at 121.5 g/ha in experiment [1] (setting [4]) was 80 to 100%; in experiment [1] (setting [6]), 0 to 80%; in experiment [2] (setting [8]), 80 to 100%; in experiment [2] (setting [10]), 80 to 100%.

On to `COCCO[C@@H]1[C@@H](Cc2ccccc2)CCC[C@H](NC(=O)c2nccc(OC)c2OCOC(C)=O)C(=O)O[C@H]1C` [Compound F112], for which the pest or weed control at 121.5 g/ha in experiment [1] (setting [4]), in experiment [1] (setting [6]), in experiment [2] (setting [8]) and in experiment [2] (setting [10]) was 80 to 100% throughout.

Regarding `CCO[C@@H]1[C@@H](Cc2ccccc2)CCC[C@H](NC(=O)c2nccc(OC)c2OC(=O)CCOC)C(=O)O[C@H]1C` [Compound F197], the pest or weed control at 121.5 g/ha in experiment [1] (24 h, Wheat Brown Rust, 1 Day Protectant, rate 121.5 g/H (low volume application), read-out: Disease control PUCCRT 1 DP) lay in the range of 80 to 100%; in experiment [1] (72 h, Wheat Brown Rust, 3 Day Curative, rate 121.5 g/H (low volume application), read-out: Disease control PUCCRT 3 DC) it was 80 to 100%; in experiment [2] (24 h, Wheat Leaf Blotch, 1 Day Protectant, rate 121.5 g/H (low volume application), read-out: Disease control SEPTTR 1 DP), 80 to 100%; in experiment [2] (72 h, Wheat Leaf Blotch, 3 Day Curative, rate 121.5 g/H (low volume application), read-out: Disease control SEPTTR 3 DC), 80 to 100%.

On to `CCOCC(=O)OCOc1c(OC)ccnc1C(=O)N[C@H]1CCC[C@H](Cc2ccc(F)cc2)[C@@H](OC(=O)C2CCCC2)[C@H](C)OC1=O` [Compound F170], for which the pest or weed control at 100 ppm in experiment [1] (setting [3]), in experiment [1] (setting [5]), in experiment [2] (setting [7]) and in experiment [2] (setting [9]) was 80 to 100% each time. Further, the pest or weed control at 121.5 g/ha in experiment [1] (setting [4]) lay within 80 to 100%; in experiment [1] (setting [6]) it was 0 to 80%; in experiment [2] (setting [8]), 80 to 100%; in experiment [2] (setting [10]) it was 80 to 100%.
